Data taken from ChEMBL document CHEMBL4699557, “Structure activity relationship of novel antiviral nucleosides against Enterovirus A71” (Bioorg Med Chem Lett, 2020).

How the values were obtained:
Enterovirus A71 [1] = test: microbe, parasite or virus in culture; type: functional, organism-based, Tainin/4643/98, Vero 76; settings: Enterovirus A, Tainin/4643/98, Vero 76, 72 h
Vero 76 [2] = test: Cytotoxicity against monkey Vero 76 cells by microscopic analysis; type: cell-based; settings: chlorocebus sabaeus, vero 76
Enterovirus A71 [3] = test: microbe, parasite or virus in culture; type: functional, organism-based; settings: Enterovirus A, Tainin/4643/98, Vero 76, 72 h
Vero 76 [4] = test: Cytotoxicity against monkey Vero 76 cells by neutral red uptake assay; type: cell-based; settings: chlorocebus sabaeus, vero 76
in vitro [5] = settings: monkey, Vero 76 cells
in vitro [6] = settings: monkey, Vero 76 cells; remark: listed apart in the source

Row | SMILES | EC50 (Enterovirus A71 [1]) [µM] | CC50 (Vero 76 [2]) [µM] | EC50 (Enterovirus A71 [3]) [µM] | CC50 (Vero 76 [4]) [µM] | selectivity ratio (in vitro [5]) | selectivity ratio (in vitro [6])
1 | CSC[C@@]12C[C@@H]1[C@@H](n1cnc3c(N[C@H](C(C)C)C4CC4)nc(Cl)nc31)[C@H](O)[C@@H]2O | > 32 | 32 | 8.4 | 32 | 3.8 | 
2 | CC(C)[C@H](Nc1nc(Cl)nc2c1ncn2[C@H]1[C@H](O)[C@H](O)[C@]2(CO)C[C@H]12)C1CC1 | 12 | > 50 | 2.3 | > 50 |  | 
3 | O=C(O)c1cnn(-c2nc(NC(C3CC3)C3CC3)c3ncn([C@H]4[C@H](O)[C@H](O)[C@@H]5C[C@@H]54)c3n2)c1 | > 50 | > 50 | > 50 | 50 |  | 
4 | CC(C)[C@@H](Nc1nc(Cl)nc2c1ncn2[C@H]1[C@H](O)[C@H](O)[C@]2(CN)C[C@H]12)C1CC1 | > 32 | 32 | > 32 | 32 |  | 
5 | NCCCNC(=O)[C@@]12C[C@@H]1[C@@H](n1cnc3c(NC(C4CC4)C4CC4)nc(Cl)nc31)[C@H](O)[C@@H]2O | > 50 | > 50 | > 50 | 50 |  | 
6 | NNc1nc(NC(C2CC2)C2CC2)c2ncn([C@H]3[C@H](O)[C@H](O)[C@@H]4C[C@@H]43)c2n1 | > 50 | > 50 | > 50 | 50 |  | 
7 | CC(C)[C@@H](Nc1nc(Cl)nc2c1ncn2[C@H]1[C@H](O)[C@H](O)[C@]2(CN=[N+]=[N-])C[C@H]12)C1CC1 | 5.3 | 32 | 4.8 | 32 | 6.7 | 6
8 | COC(=O)c1cnn(-c2nc(NC(C3CC3)C3CC3)c3ncn([C@H]4[C@H](O)[C@H](O)[C@@H]5C[C@@H]54)c3n2)c1 | > 50 | > 50 | > 50 | 50 |  | 
9 | OC[C@@]12C[C@@H]1[C@@H](n1cnc3c(NC(C4CCC4)C4CCC4)nc(Cl)nc31)[C@H](O)[C@@H]2O | 16 | 50 | > 28 | 28 |  | 3.1
10 | CC(C)C(Nc1nc(Cl)nc2c1ncn2[C@H]1[C@H](O)[C@H](O)[C@]2(CO)C[C@H]12)C(C)C | 32 | > 100 | 32 | > 100 |  | 
11 | OC[C@@]12C[C@@H]1[C@@H](n1cnc3c(N[C@@H](C4CCC4)C4CC4)nc(Cl)nc31)[C@H](O)[C@@H]2O | 16 |  | 8 | 13 | 1.6 | > 3.1
12 | CSc1nc(N[C@H](C(C)C)C2CC2)c2ncn([C@H]3[C@H](O)[C@H](O)[C@]4(CO)C[C@H]34)c2n1 |  | > 100 | 66 | > 100 | > 1.5 | 
13 | O[C@@H]1[C@H](O)[C@@H]2C[C@@H]2[C@H]1n1cnc2c(NCc3ccccc3F)nc(Cl)nc21 | > 50 | > 50 | > 23 | 23 |  | 
14 | O[C@@H]1[C@H](O)[C@@H]2C[C@@H]2[C@H]1n1cnc2c(NC(C3CC3)C3CC3)nc(I)nc21 | > 50 | > 50 | > 50 | 50 |  | 
15 | O[C@@H]1[C@H](O)[C@@H]2C[C@@H]2[C@H]1n1ccc2c(NC(C3CC3)C3CC3)nc(I)nc21 | > 100 | 100 | 32 | 44 | 1.4 | 
16 | O[C@@H]1[C@H](O)[C@@H]2C[C@@H]2[C@H]1n1cnc2c(NC(C3CCC3)C3CCC3)nc(Cl)nc21 |  | 16 | > 17 | 17 |  | 
17 | OC[C@@]12C[C@@H]1[C@@H](n1cnc3c(N[C@H](C4CCC4)C4CC4)nc(Cl)nc31)[C@H](O)[C@@H]2O | 16 | > 50 | 9.3 | 14 | 1.5 | > 3.1
18 | OC[C@H]1O[C@@H](n2cnc3c(NC(C4CC4)C4CC4)ncnc32)[C@H](O)[C@@H]1O | > 50 | > 50 | > 50 | > 50 |  | 
19 | Nc1nc(Cl)nc2c1ncn2[C@H]1[C@H](O)[C@H](O)[C@]2(CO)C[C@H]12 | > 50 | > 50 | > 36 | 36 |  | 
20 | CC(C)(C)[C@H](Nc1nc(Cl)nc2c1ncn2[C@H]1[C@H](O)[C@H](O)[C@]2(CO)C[C@H]12)C1CC1 | 32 | > 100 | 31 | > 100 |  | 

Row | SMILES | EC50 (Enterovirus A71 [1]) [µM] | CC50 (Vero 76 [2]) [µM] | EC50 (Enterovirus A71 [3]) [µM] | CC50 (Vero 76 [4]) [µM] | selectivity ratio (in vitro [5]) | selectivity ratio (in vitro [6])
21 | CC[C@@H](Nc1nc(SC)nc2c1ccn2[C@H]1[C@H](O)[C@H](O)[C@]2(CO)C[C@H]12)C1CC1 |  | > 50 | 2.3 | > 50 | > 22 | > 3.1
22 | NCCNC(=O)[C@@]12C[C@@H]1[C@@H](n1cnc3c(NC(C4CC4)C4CC4)nc(Cl)nc31)[C@H](O)[C@@H]2O | > 50 | > 50 | > 50 | 50 |  | 
23 | O[C@@H]1[C@H](O)[C@@H]2C[C@@H]2[C@H]1n1cnc2c(NC(C3CC3)C3CC3)ncnc21 | > 50 | > 50 | > 50 | > 50 |  | 
24 | OC[C@H]1O[C@@H](n2cnc3c(NC(C4CCC4)C4CCC4)ncnc32)[C@H](O)[C@@H]1O | > 100 | > 100 | > 100 | > 100 |  | 
25 | O[C@@H]1[C@H](O)[C@@H]2C[C@@H]2[C@H]1n1cnc2c(N[C@@H](CC3CC3)C3CC3)nc(Cl)nc21 | 18 | > 50 | > 7.6 | 7.6 |  | > 2.8
26 | CC(C)(O)[C@@H](Nc1nc(Cl)nc2c1ccn2[C@H]1[C@H](O)[C@H](O)[C@]2(CO)C[C@H]12)C1CC1 | > 100 | > 100 | > 63 | 63 |  | 
27 | CC(C)[C@@H](Nc1nc(Cl)nc2c1ncn2[C@H]1[C@H](O)[C@H](O)[C@@H]2C[C@@H]21)C1CC1 | 16 | > 50 | 12 | > 50 | > 4.2 | > 3.1
28 | O[C@@H]1[C@H](O)[C@@H]2C[C@@H]2[C@H]1n1cnc2c(N[C@H](CC3CC3)C3CC3)nc(Cl)nc21 | 21 |  | 8.1 | 9.9 | 1.2 | > 2.4
29 | CC(C)[C@@H](Nc1nc(Cl)nc2c1ncn2[C@H]1[C@H](O)[C@H](O)[C@]2(CCl)C[C@H]12)C1CC1 | 4.3 | 32 | 3.9 | 27 | 6.9 | 7.4
30 | CC[C@H](Nc1nc(Cl)nc2c1ncn2[C@H]1[C@H](O)[C@H](O)[C@]2(CO)C[C@H]12)C1CC1 |  | > 50 | 5.3 | > 50 | > 9.4 | > 3.1
31 | OC[C@@]12C[C@@H]1[C@@H](n1cnc3c(NCc4ccccc4)nc(Cl)nc31)[C@H](O)[C@@H]2O | > 100 | > 100 | > 100 | > 100 |  | 
32 | O=C(O)[C@@]12C[C@@H]1[C@@H](n1cnc3c(NC(C4CC4)C4CC4)nc(Cl)nc31)[C@H](O)[C@@H]2O | > 50 | > 50 | > 50 | 50 |  | 
33 | OC[C@H]1O[C@@H](n2cnc3c(NC(C4CCC4)C4CCC4)nc(Cl)nc32)[C@H](O)[C@@H]1O | > 32 | 32 | > 27 | 27 |  | 
34 | CCOC(=O)c1ccc(OCCC2CCN(c3ccc(C)nn3)CC2)cc1 [PIRODAVIR] | 0.86 | > 27 | 0.57 | 17 | 30 | > 31
35 | CSc1nc(N[C@@H](C2CC2)C(C)(C)O)c2ccn([C@H]3[C@H](O)[C@H](O)[C@]4(CO)C[C@H]34)c2n1 | > 100 | > 100 | > 100 | > 100 |  | 
36 | O[C@@H]1[C@H](O)[C@@H]2C[C@@H]2[C@H]1n1cnc2c(NCC(C3CC3)C3CC3)nc(Cl)nc21 | > 50 | > 50 | > 10 | 10 |  | 
37 | CCOC(=O)[C@@]12C[C@@H]1[C@@H](n1cnc3c(NC(C4CC4)C4CC4)nc(Cl)nc31)[C@H](O)[C@@H]2O | > 50 | > 50 | > 1.5 | 1.5 |  | 
38 | NC(=O)c1ncn([C@H]2[C@H](O)[C@H](O)[C@]3(CO)C[C@H]23)n1 | > 50 | > 50 | > 50 | > 50 |  | 
39 | CC(C)(O)[C@@H](Nc1nc(Cl)nc2c1ncn2[C@H]1[C@H](O)[C@H](O)[C@]2(CO)C[C@H]12)C1CC1 | > 100 | > 100 | > 100 | > 100 |  | 
